In assay [1] the test system is PAF-Induced Platelet Aggregation. Put plainly: Inhibition of PAF-Induced Platelet Aggregation. The settings on record: Oryctolagus cuniculus; rabbit platelet-rich plasma, PAF 100 ngml^-1. The assay is classed as cell-based, rabbit (New Zealand White). How it is done: Inhibition of PAF-Induced Platelet Aggregation
Male New Zealand White rabbits (3.0-3.5 kg) were anaesthetised by intravenous administration of sodium pentobarbitone, 18 mg.ml^-1, via a marginal ear vein. The trachea was exposed and connected to a respiratory pump (Harvard UK) to provide artificial ventilation. A carotid artery was exposed and cannulated and the animal was exsanguinated. Whole blood was collected in a syringe containing tri-sodium citrate (3.8% w/v) to a ratio of 1 part citrate:9 parts blood.
Collected blood was centrifuged at 180×g for 15 minutes at room temperature (21° C.) to prepare platelet-rich plasma (PRP). The remaining blood was then centrifuged at 1800×g for 10 minutes at room temperature to obtain platelet poor plasma (PPP).
Platelet count of the PRP was measured using a Technicon H1 blood cell differential analyser (Bayer Diagnostics UK) and adjusted with PPP to obtain a final platelet count of 500,000 platelets per μl of plasma, this being the normal physiological platelet count for rabbits. Corrected PRP was left to equilibrate at room temperature for 30 minutes before use.
Aggregation studies were carried out using a 4-channel aggregometer (PAP-4C, BioData USA) as follows: 400 μl aliquots of PRP were placed in siliconised cuvettes and incubated to 37° C. for 1 to 2 minutes in the heating block of the aggregometer. Baseline (100% aggregation) was set up using PPP (500 μl in a siliconised cuvette). The PRP was placed into a measuring well of the aggregometer, and a stirrer bar was added. The sample was stirred at 1000 rpm. The machine was activated to set the 0% aggregation level. Test compound or vehicle (50 μl) was added to the PRP, where any effects on the baseline was noted. PAF (100 ngml^-1 as 50 μl aliqout) was added to the PRP 3 minutes after test compound or vehicle. Aggregation was measured for a further 4 minutes after PAF addition and the maximum aggregation over the 4 minutes was recorded.
The investigation of different concentrations of test compound was performed in triplicate. Data were expressed as […] of the sample and test compound data were compared to vehicle data to obtain % inhibition of the PAF-induced aggregation from which IC50 values could be determined.
PAF was made up in sterile saline (NaCl 0.9% w/v) containing BSA (0.25% w/v) from an initial stock solution (10 mgml^-1 in EtOH). Test compounds were made up as 1×10^-3 M stock solutions in sterile saline containing molar equivalents of 1N HCl (v/v) or in DMSO.
In the results which follow, a comparison compound A was included. Compound A was prepared as described in EP-A-260613 (G. D. Searle), but is not part of the present invention. As appears from the results of the comparison, compounds of this invention, all of which incorporate a fragment capable of H1 antagonist activity, are observed to show improved PAF antagonist activity over compound A.

The subject of assay [2] is PAF Induced Bronoconstriction. The experiment in a line: PAF Induced Bronoconstriction in the Anaesthetised Guinea Pig. The settings on record: Cavia porcellus, po, 1 h; p.o.; PAF 100 ngkg^-1 i.v. bolus one hour after dosing; read-out: ED50 (PAF induced bronchoconstriction). The assay is classed as in vivo, guinea pig (Dunkin-Hartley). How it is done:
PAF Induced Bronoconstriction in the Anaesthetised Guinea Pig
(§1) Following oral administration of test compound or vehicle, male Dunkin-Hartley guinea pigs (350-400 g) were anaesthetised by intraperitoneal injection of 60 mgkg^-1 sodium pentobarbitone (Sagatal, May & Baker UK). Through a midline incision of the neck, the trachea was cannulated and connected to a small animal respirator (Harvard, UK) Animals were artificially ventilated at a rate of 30 breaths per minute with a tidal of 8-10 ml to give a resting tracheal inflation pressure of 15 mmHg as measured by a physiological pressure transducer (type P23XL, Spectramed USA) connected to a side arm of the respiratory circuit.
A jugular vein was cannulated for the administration of a bolus dose of propranolol and for the later administration of bolus PAF. A carotid artery was cannulated for the measurement of arterial blood pressure via a physiological pressure transducer (type P23XL, Spectramed USA). Blood pressure and tracheal inflation pressure were recorded on a thermal array chart recorder (type TA4000, Gould Electronics UK).
Propranolol (1 mgkg^-1 i.v. & 3 mgkg^-1 s.c. Sigma Chemical Co. UK) was administered 10 minutes before PAF in order to prevent the bronchodilatory activity of catecholamines which may be released in response to PAF administration. PAF (100 ngkg^-1 i.v. bolus) was administered at the one hour time point following oral administration of the test compound or vehicle.
Changes in tracheal inflation pressure and blood pressure of drug treated animals were compared with changes from vehicle treated animals and percentage inhibition determined. One dose of test compound was investigated per animal.

For assay [3], the system named is Histamine Induced Bronchoconstriction. The experiment in a line: Histamine Induced Bronchoconstriction in the Anaesthetised Guinea Pig. The settings on record: p.o.; for ED50: Cavia porcellus, po, 1 h, histamine infusion 10 μgkg^-1 min^-1 one hour after dosing. The assay is classed as in vivo, guinea pig (Dunkin-Hartley).
Text: Histamine Induced Bronchoconstriction in the Anaesthetised Guinea Pig
as §1, with “or vehicle by oral gavage,” for “or vehicle,”, “(Harvard, UK).” for “(Harvard, UK)”, “tidal volume” for “tidal”
A jugular vein was cannulated for the administration of propranolol and for the infusion of histamine. A carotid artery was cannulated for the measurement of arterial blood pressure via a physiological pressure transducer (type P23XL, Spectramed USA). Blood pressure and tracheal inflation pressure were recorded on a thermal array chart recorder (type TA4000, Gould Electronics UK).
Following a suitable equilibration period, propranolol (1 mgkg^-1 i.v. & 3 mgkg^-1 s.c. Sigma Chemical Co. UK) was administered to inhibit any resulting catecholamine release following histamine administration.
Histamine infusion (10 μgkg^-1 min^-1 at a rate of 10 mlhr^-1 using a perfusion pump type Perfuser securer FT, B. Braun Germany) was started at the one hour time point following oral administration of the test compound or vehicle. Changes in tracheal inflation pressure and blood pressure of drug treated animals were compared with changes from vehicle treated animals and ED50 values determined. One dose of test compound was investigated per animal.

In assay [4] the target is T1, histamine-1 receptors on Hela-S3 cells (Homo sapiens, UniProt P35367).
T1 construct: histamine-1 receptors on Hela-S3 cells (American Type Culture Collection); host or cells: HeLa-S3 cells (intact cell suspension)
The experiment in a line: Inhibition of [^3 H]-Pyrilamine Binding to Histamine-1 Receptors on Hela-S3 Cells. The settings on record: 0.5 h; 1 μM test compound; [^3 H]-pyrilamine remaining specifically bound; 37° C., 30 minutes; read-out: % Specific Binding at 1 μM. On the procedure: Inhibition of [^3 H]-Pyrilamine Binding to Histamine-1 Receptors on Hela-S3 Cells
The inhibition of [^3 H]-pyrilamine binding to histamine-1 receptors on Hela-S3 cells (American Type Culture Collection) was determined by isotopic labelling and filtration techniques. A suspension of the cells in buffer (25 ml, 0.5% Bovine Serum Albumin, 0.1% sodium azide, phosphate buffered saline (PBS)) was centrifuged at 1000 rpm for 5 minutes in a JOUAN CR 422 centrifuge, collected, resuspended in buffer (25 ml) and spun again. The cells were counted using a haemocytometer and resuspended in buffer to provide a final concentration of 4.5×10^6 cells ml^-1. A portion of the Hela-S3 cell suspension (1 ml) was added to each assay tube containing 25 μl of vehicle (50% DMSO/buffer) or 25 μl of test compound solution (dissolved in DMSO and diluted with sufficient PBS to give a final test concentration of 1 μM) and 25 μl of [^3 H]-pyrilamine (supplied by Amersham International and diluted with PBS to 3 nM). The tubes were mixed, incubated at 37° C. for 30 minutes and then spun at 4° C. at 2000 rpm for 2 minutes. The supernatant was removed and the cells resuspended in buffer (repeated ×2). The cells were suspended in 300 μl of a 2:1 solution of 1M sodium hydroxide and 1% sodium dodecyl sulphate. The tubes were left ovemight before the contents were tranferred to a scintillation vial, treated with 10 ml, OPTIPHASE MP scintillation fluid (OPTIPHASE MP is a trade mark) and the radioactivity counted in a scintillation counter. Non-displacable binding (NDB) was determined using Astemizole (5×10^-5 M) in place of test compounds. Defining the counts for total binding from the vehicle control sample as "TB" and the counts for total binding with antogonist as "TBA" the percentage specific binding (% SB) can be determined from the following equation.

T1 sequence (P35367 whole entry): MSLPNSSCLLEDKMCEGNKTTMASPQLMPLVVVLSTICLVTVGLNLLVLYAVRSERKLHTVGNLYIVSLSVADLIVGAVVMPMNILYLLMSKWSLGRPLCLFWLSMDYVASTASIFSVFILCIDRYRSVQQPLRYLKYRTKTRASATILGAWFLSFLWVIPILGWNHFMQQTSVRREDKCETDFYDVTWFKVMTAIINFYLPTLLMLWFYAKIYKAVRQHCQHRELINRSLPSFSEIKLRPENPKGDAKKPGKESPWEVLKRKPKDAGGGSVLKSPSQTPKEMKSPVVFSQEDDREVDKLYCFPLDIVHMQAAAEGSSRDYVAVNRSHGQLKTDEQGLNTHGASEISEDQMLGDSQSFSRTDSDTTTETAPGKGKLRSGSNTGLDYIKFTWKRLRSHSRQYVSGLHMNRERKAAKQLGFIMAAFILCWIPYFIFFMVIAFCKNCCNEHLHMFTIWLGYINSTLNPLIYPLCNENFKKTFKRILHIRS

In turn, `Cc1ccc(/C(=C\CN2CCCC2)c2cccc(/C=C/CN(C)C(=O)c3ccc(Cn4c(C)nc5cnccc54)cc3)n2)cc1` [Example 3, N-Methyl-4-(1H-2-methylimidazo[4,5-c]pyridin-1-ylmethyl)-N-{3-[6-(3-pyrrolidin-1-yl-1-{4-tolyl}-prop-1E-enyl)-pyridin-2-yl]-prop-2E-enyl}-benzamide] had an IC50 in assay [1] of 1480 nM. The ED50 in assay [2] is 5.8 mg/kg; in assay [3], 0.4 mg/kg. Also, the activity at 1 µM in assay [4] stood at 19%.

Compound `Cc1ccc(/C(=C\CN2CCCC2)c2cccc(/C=C/CN(C(=O)c3ccc(Cn4c(C)nc5cnccc54)cc3)C3CCCCC3)n2)cc1` [Example 4, N-Cyclohexyl-4-(1H-2-methylimidazo[4,5-c]pyridin-1-ylmethyl)-N-{3-[6-(3-pyrrolidin-1-yl-1-{4-tolyl}-prop-1E-enyl)-pyridin-2-yl]-prop-2E-enyl}-benzamide] returned an IC50 in assay [1] of 167 nM. The ED50 in assay [2] was 1.55 mg/kg; in assay [3], 0.85 mg/kg. The activity at 1 µM in assay [4] turned out to be 42%.

In assay [1], `CCN(C/C=C/c1cccc(/C(=C/CN2CCCC2)c2ccc(C)cc2)n1)C(=O)c1ccc(Cn2c(C)nc3cnccc32)cc1` [Example 13, N-Ethyl-4-(1H-2-methylimidazo[4,5-c]pyridin-1-ylmethyl)-N-{3-[6-(3-pyrrolidin-1-yl1-{4-tolyl}-prop-1E-enyl)-pyridin-2-yl]-prop-2E-enyl}-benzamide] had an IC50 of 238 nM. Moreover, the ED50 in assay [2] is 2.55 mg/kg; in assay [3], 1 mg/kg. For the same compound, the activity at 1 µM in assay [4] worked out at 30%.

In assay [1], `CCCN(C/C=C/c1cccc(/C(=C/CN2CCCC2)c2ccc(C)cc2)n1)C(=O)c1ccc(Cn2c(C)nc3cnccc32)cc1` [Example 16, N-Propyl-4-(1H-2-methylimidazo[4,5-c]pyridin-1-ylmethyl)-N-{3-[6-(3-pyrrolidin-1-yl-1-{4-tolyl}-prop-1E-enyl)-pyridin-2-yl]-prop-2E-enyl}-benzamide] gave an IC50 of 130 nM. Also, the ED50 in assay [2] came out at 1.55 mg/kg. In addition, the “% inhibition (histamine induced bronchoconstriction)” value in assay [3] (10 mg/kg, histamine infusion one hour after dosing) worked out at 46%. In addition, the activity at 1 µM in assay [4] was 30%.

With `Cc1nc2cnccc2n1Cc1ccc(C(=O)N(C/C=C/c2cccc(/C(=C/CN3CCCC3)c3ccc(Cl)cc3)n2)C2CCCCC2)cc1` [Example 20, N-Cyclohexyl-4-(1H-2-methylimidazo[4,5-c]pyridin-1-ylmethyl)-N-{3-[6-(3-pyrrolidin-1-yl-1-{4-chlorophenyl}-prop-1E-enyl)-pyridin-2-yl]-prop-2E-enyl}-benzamide], the figures for the ED50 in assay [2] and in assay [3] were 4.2 mg/kg and 1 mg/kg, respectively.

Values taken from patent US5866588A, “Imidazopyridine derivatives” (British Biotech Pharmaceuticals Ltd., priority 1995, dated 1999).
